Experimental findings from patent US20200068887A1, “TREATMENT FOR REMOVING ECTOPARASITES FROM FISH” (priority 2016, published 2020) are described below.

SMILES strings stand for the structures. Values joined by “and” are separate entries in the source; they are usually repeats but may differ in a detail not shown here. Identical values can stand only once.

One test concerns salmon louse. The test is described as follows: Bath treatment of lice-infected Atlantic salmon, percent lice removed. Format: in vivo. The conditions noted are these: duplicate. On the procedure: To determine the concentration- and time-dependence of imidacloprid treatment in vivo, Atlantic salmon (average of 320.9 g) were challenged with imidacloprid in seawater (32.5%0 salinity) at 12° C. The water level in the tank was lowered and aeration was employed during administration of the active. The salmon louse copepodid culture was counted and adjusted to obtain a target level of around 40 copepodids per fish in the challenge tank at each challenge time point.
Salmon lice on the fish were counted using standard methods. Only lice on the fish's outer surface, not including gills and oral/buccal cavities, were investigated.
Numbers of dissociated lice in tank water or attached to the tank walls were recorded. Lice in the tank water were collected and assessed for ability to attach by suction to a smooth plastic surface immediately after treatment and again after 30-60 minutes (to assess possible revival). Live and viable lice were also collected from the mock-treated control groups for reference and held in revival chambers for the same period of time to assess the system.
The test solutions of the active were prepared (added and homogenised with seawater) and administered to a treatment volume of 40 litres.
Three sea lice-infected fish from the holding tank were randomly gathered and carefully steered into a barrel forming an inner compartment (diameter=34.5-40 cm; height=54 cm) that was submerged in the tank and in which the base has been replaced with a plastic mesh screen with 9 mm^2 square holes.
The fish were transferred to the inner compartment within 3 minutes of each test start. The inner compartment was suspended/submerged in the holding tank pending treatment. Treatments and mock treatments were implemented by draining the inner compartment with fish and transferring it to a barrel containing the test solution. Treatments/mock treatments were performed in static water with aeration/oxygenation. Aeration was adjusted to set the oxygen saturation to 70-100%.
To terminate the treatment, the inner compartment with treated fish was lifted to the surface and drained, then fish were transferred directly and without water to a second basin with a lethal overdose of anaesthetic and left until dead. All lice remaining on these fish and lice that fell off in the anaesthetic bath were recorded.
Exposure times with imidacloprid ranged from 3 to 60 minutes, and doses ranged from 20 ppm to 200 ppm.
Negative control groups at 3- and 60 minutes were duplicated. Superscript numbers denote the total number of lice on the 3 fish in each test.
By way of comparison, fish infected with sea lice from the same sources were treated with azamethiphos at 0.1 mg/l and deltamethrin at 0.2 μ/l for 30 minutes, per the recommended dosage regimes. Treatments were carried out under similar conditions as those treated with imidacloprid. A mock-treatment control was also administered. Each treatment condition was administered in duplicate.
Superscript numbers denote the total number of lice on the 3 fish in each test.

Another test relates to sea lice. The test is described as follows: Comparison on isolated sea lice (in vitro bath exposure). The conditions noted are these: registered approx. 20 h after end of exposure. On the procedure:
Both pre-adult and adult stages (mobile stages) of both sexes were used, and they were equally distributed among groups. The sea lice were exposed to imidacloprid for 60 minutes, azamethiphos for 60 minutes and deltamethrin for 30 minutes in one litre baths at a range of concentrations (Tables 6, 7 and 8). The sea lice were transferred to clean aerated seawater after treatment. The temperature of the seawater during the experiment was 12° C., but during exposure the temperature raised to approx. 14° C. in regimes exposed for 60 min. (imidacloprid and azamethiphos) and to 13° C. for the regime exposed in 30 minutes (deltamethrin).
The numbers of live and immobilised (including killed) lice in each regime were registered approximately 20 h after end of exposure. Each louse was individually investigated.

Where [1] appears, read: azamethiphos 5 ppm, 60 min exposure.
[2] abbreviates: azamethiphos 10 ppm, 60 min exposure.
[3] abbreviates: azamethiphos 15 ppm, 60 min exposure.
Setting [4] is: azamethiphos 20 ppm, 60 min exposure.
The mark [5] stands for this setting: deltamethrin 5 ppm, 30 min exposure.
[6] abbreviates: deltamethrin 15 ppm, 30 min exposure.
The mark [7] stands for this setting: deltamethrin 20 ppm, 30 min exposure.
Setting [8] is: deltamethrin 30 ppm, 30 min exposure.

With `COP(=O)(OC)SCn1c(=O)oc2cc(Cl)cnc21` [azamethiphos], the “% Removal” value with salmon louse (azamethiphos at 0.1 mg/l for 30 minutes, 52 and 33 lice on 3 fish) is 3.0^33% and 3.8^52%. For the same compound, the “% effect” value was 0% in the test on sea lice (setting [1]); 10% with sea lice (setting [2]); 0% in the test with sea lice (setting [3]); 10% and 20% in the test on sea lice (setting [4]). Also, the Immobilised in the test on sea lice (setting [1]) was 0; with sea lice (setting [2]), 1; with sea lice (setting [3]) it was 0; with sea lice (setting [4]), 1 and 2. Also, the Live with sea lice (setting [1]) is 10; in the test on sea lice (setting [2]) it was 9; with sea lice (setting [3]), 10; with sea lice (setting [4]), 9 and 8; in the test on sea lice (azamethiphos 30 ppm, 60 min exposure), 9 and 6.

For `CC1(C)[C@H](C(=O)O[C@H](C#N)c2cccc(Oc3ccccc3)c2)[C@@H]1C=C(Br)Br` [deltamethrin], in the test with salmon louse (deltamethrin at 0.2 μ/l for 30 minutes, 37 lice on 3 fish each), the “% Removal” value is reported as 0^37%. Further, the “% effect” value in the test with sea lice (setting [5]) is 0%; with sea lice (setting [6]), 20% and 10%; with sea lice (setting [7]) it was 20% and 10%. The Immobilised is 0 with sea lice (setting [5]); 2 and 1 with sea lice (setting [6]); 2 and 1 with sea lice (setting [7]); 1 and 2 in the test on sea lice (setting [8]). The Live with sea lice (setting [5]) is 10; with sea lice (deltamethrin 10 ppm, 30 min exposure), 9 and 10; in the test on sea lice (setting [6]), 8 and 9; with sea lice (setting [7]), 8 and 9; in the test with sea lice (setting [8]), 10 and 8.
